From the METLIN SMRT retention time set (Domingo-Almenara et al. 2019)

Experiment: gradient 5% acetonitrile 3 min, to 50% in 2 min, to 85% in 15 min, held 3 min, 100 µL/min
Details: column: Zorbax Extend-C18 2.1 x 50 mm; eluents: water / acetonitrile, 0.1% formic acid
Method in brief: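 Data were gathered over 3 months by HPLC coupled to a quadrupole time-of-flight mass spectrometer, operated in positive and negative ionization mode. Mixtures of ~100 pure standards ran on a Zorbax Extend-C18 column (2.1 × 50 mm, 1.8 μm) at 100 μL/min, with water and acetonitrile each containing 0.1% formic acid and dead and dwell volumes of 40 μL and 900 μL. Retention time was read from adduct peaks picked by computer and checked manually.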

SMILES | RP-LC retention time
CCOC(=O)N1CCN(C(=O)CSc2ncnc3c2nnn3CC)CC1 | 657 s
Fc1ccc(-c2ccnc3nc(-c4ccccc4)nn23)cc1 | 949 s
COc1ccc(NC(=O)Cc2csc3nc(-c4cccc(Cl)c4)cn23)cc1OC | 831 s
O=C(NC1CCN(c2cc(-c3ccccc3)[nH]n2)C1)c1cccc(Cl)c1 (centres undefined) | 763 s
COc1ccc(-c2c(C)noc2NC(C)=O)cc1S(=O)(=O)N1CC=C(c2ccccc2)CC1 | 879 s
CCc1ccc(NC(=O)c2cn(-c3cc(-c4nc(CC)no4)ccn3)cn2)cc1 | 939 s
CCOc1ccc(-c2noc(CN3N=NC4C(=O)N(c5ccc(C)c(F)c5)C(=O)C43)n2)cc1OC (centres undefined) | 801 s
COC(=O)c1cc(-c2c[nH]cc2C(=O)OCc2ccccc2)cn1S(=O)(=O)c1ccc(C)cc1 | 1060 s
CCN1CCN(c2cc(C)c3cc(NC(=O)/C=C/c4ccc(OCCC(C)C)cc4)ccc3n2)CC1 | 747 s
COc1ccc(C(=O)N2C[C@@H]3C[C@H](NC(=O)c4cccs4)[C@H]2C3)c(OC)c1 | 701 s
Cc1ccccc1OCC(=O)Nc1nc(-c2ccccc2Cl)cs1 | 1210 s
CCOc1ccc(C(=O)N2CCC3(C2)C(=O)Nc2ccccc23)cc1 (centres undefined) | 725 s
O=C(Nc1ccccc1)N1CCN(Cc2nc3cc(Cl)ccc3o2)CC1 | 716 s
Cc1cccc(CN2CCCN(CC(=O)NC(C)CCc3ccccc3)S2(=O)=O)c1 (centres undefined) | 1080 s
O=C(Cc1cc(-c2ccc3c(c2)OCCO3)on1)N1CCN(C(=O)c2ccco2)CC1 | 680 s
O=C(Nc1ccc2c(c1)OCO2)C1CCCN(S(=O)(=O)Cc2ccc(Cl)cc2)C1 (centres undefined) | 964 s
CN(Cc1cnc2nc(N)nc(N)c2n1)c1ccc(C(=O)NC(CCC(=O)O)C(=O)O)cc1 (centres undefined) | 666 s
CCC(C(=O)Nc1nc2ccccc2[nH]1)n1cnc2ccccc2c1=O (centres undefined) | 652 s
COc1ccc(N2C=C(C#N)S(=O)(=O)c3ccc(Cl)cc32)cc1OC | 916 s
CC(=O)Nc1ccc2nc(NC(=O)c3cccc(C(F)(F)F)c3)sc2c1 | 784 s
Cc1noc(C)c1CCC(=O)N1CCC(c2nnc(-c3ccco3)s2)CC1 | 666 s
Cc1ccc(-c2nc(-c3ccc4c(c3)ncn4CCN3CCOCC3)no2)c(C)c1 | 698 s
O=C1C2N=NN(c3cccc(F)c3)C2C(=O)N1c1ccccc1 (centres undefined) | 925 s
COc1cc2c(cc1OC)C(C(=O)Nc1ccc(C(C)C)cc1)C(c1cccnc1)N(C)C2=O (centres undefined) | 720 s
Cc1ccc(-c2ncc(NC(=O)c3ccc(Br)o3)cn2)cc1 | 1030 s
COc1ccccc1CCNC(=O)CSc1nc(=O)n(Cc2ccco2)c2c1CCC2 | 739 s
O=C1CC(c2noc(-c3cc(Cl)ccc3F)n2)CN1c1ccc(F)cc1 (centres undefined) | 1100 s

SMILES | RP-LC retention time
Cc1ccc2nc(-c3ccncc3)cc(C(=O)Nc3nc(-c4ccccc4)c(C)s3)c2c1 | 990 s
COc1cc(Cl)ccc1C(=O)N1CCCC1c1nc(-c2ccccc2)no1 (centres undefined) | 1070 s
O=C(Nc1ccccc1C(F)(F)F)N1CCC(N2CCN(Cc3ccc(F)cc3)C(=O)C2=O)CC1 | 752 s
Cc1csc(-c2cc(S(=O)(=O)Nc3ccc(F)cc3Cl)cn2CC(=O)N2CCCC2)n1 | 944 s
Cc1nc(C)n(CC(=O)Nc2ccc(F)cc2)c(=O)c1C | 630 s
CCC(CC)N1CCC(F)(c2nc(-c3ccccc3)no2)CC1 | 704 s
CCc1ccc(C(O)CN2CCN(c3ccccn3)CC2)cc1 (centres undefined) | 572 s
Cc1c(Cl)ccc2c(=O)c3c([nH]c12)CCN(CC(=O)Nc1ccc(Cl)c(F)c1)C3 | 646 s
Cc1nnsc1C(=O)Nc1nnc(SCC(=O)Nc2ccc(F)c(Cl)c2)s1 | 813 s
COC(=O)C1=CN(C2CC2)c2cc(N3CCN(C)CC3)c(F)cc2S1(=O)=O | 955 s
O=C(Nc1ccc(F)c(Cl)c1)N1CCC(N2CCN(Cc3ccccc3)C2=O)CC1 | 899 s
CC(Oc1ccccc1Cl)C(=O)NCCn1cnc(-c2ccccc2)cc1=O (centres undefined) | 790 s
CC(=O)OC1CCN(C(=O)c2cccc(C#N)c2)CC1 | 706 s
COc1ccc2c(c1)C1(CCN(C(=O)Nc3ccccc3OC)C1)C(=O)N2 (centres undefined) | 722 s
CS(=O)(=O)N1CCCN(C(=O)NC2CCCC2)CC1 | 636 s
CC(=O)Nc1ccc2nc(-c3ccc(Cl)cc3)cc(OCC(N)=O)c2c1 | 621 s
CN1C(=O)CCc2cc(NS(=O)(=O)c3cccc4nsnc34)ccc21 | 716 s
O=C(Nc1cnc(-c2cccc(Cl)c2)nc1)c1ccccc1 | 1070 s
Cn1ncc(N2CCC(C(=O)NC3CCCC3)C2)cc1=O (centres undefined) | 630 s
CCOc1ccc(-c2cc(SCc3cccnc3)ncn2)cc1 | 690 s
Cc1ccc(S(=O)(=O)CCc2nc3ccccc3n2CC(=O)O)cc1 | 607 s
c1ccc(-c2nc(-c3ccc(-n4cccn4)nc3)no2)cc1 | 1200 s
CCCN1C(=O)COc2ccc(-c3noc(-c4ccccc4F)n3)cc21 | 1160 s
Cc1c(Cl)cccc1NC(=O)Cn1nc(C(=O)N2CCCCC2)c2ccccc21 | 917 s
CCC(C)NC(=O)Cn1nc2c(Oc3ccccc3)nc3ccccc3n2c1=O (centres undefined) | 895 s
Cc1ccc(C)c(NS(=O)(=O)c2cn(C(C)C)c3ncccc23)c1 | 960 s
CN(C)c1nc(Nc2ccc(F)cc2)c2cnn(C)c2n1 | 781 s

Second part, the molecule after the results:

RP-LC retention time | SMILES
1050 s | COC(=O)c1ccccc1NC1=NS(=O)(=O)C(c2ccc(F)cc2)=C1C
596 s | O=C(c1ccco1)N1CCCC(c2nn[nH]n2)C1 (centres undefined)
730 s | O=C(Nc1ccc2c(c1)OCCO2)C1CCN(C(=O)C2Sc3ccccc3NC2=O)CC1 (centres undefined)
748 s | CN(C)c1nc2ncn3c(=O)n(CC(=O)Nc4ccc(Cl)cc4F)nc3c2s1
906 s | CC1=C(c2ccc(C)c(C)c2)S(=O)(=O)N=C1N1CCCN(C(=O)NCCC(C)C)CC1
663 s | CC(=O)c1ccc(NC(=O)CNS(=O)(=O)c2ccc(C(C)(C)C)cc2)cc1
685 s | Cc1ccc(NC(=O)N2CCCC(Cn3c(C4CC4)nc4cccnc43)C2)cc1 (centres undefined)
984 s | CCCS(=O)(=O)N1CCC2(CC1)CC(OCc1ccccc1)CCO2 (centres undefined)
767 s | COc1cc2c(cc1OC)CN(S(=O)(=O)CCCNC(=O)CC1CCCCC1)CC2
705 s | O=C(CN1CCC(c2nc(-c3cccc(F)c3)no2)CC1)NC1CCCCC1
633 s | O=C(c1cc(-c2cccnc2)n[nH]1)N1CCN(C(=O)c2cc3ccccc3[nH]2)CC1
1090 s | Cc1nc(-c2csc(S(=O)(=O)N3CCCC(C(=O)Nc4ccc(C(C)C)cc4)C3)c2)no1 (centres undefined)
735 s | O=C1C(=O)N(Cc2ccc(C(=O)N3CCCCC3)cc2)CCN1Cc1ccc(F)cc1
888 s | CCOC(=O)CNC(=O)NCc1cccn1Cc1cc(C)ccc1C
662 s | Cc1ccccc1NC(=O)Nc1ccc2nnc(C)n2c1
941 s | CC(=O)N1c2ccc(S(=O)(=O)N3CCCCC3)cc2CC1C(=O)NCCc1ccc(C)cc1 (centres undefined)
594 s | CCCn1cc(-c2ccncc2)cc1C(=O)Nc1ccc(NC(C)=O)cc1
769 s | Cc1sc(NC(=O)C2CCN(S(=O)(=O)c3cccs3)CC2)c(C(N)=O)c1C

RP-LC retention time | SMILES
722 s | O=C(CC(=O)Nc1ccccc1F)Nc1ccc2nc3n(c(=O)c2c1)CCCCC3
810 s | CCOCCCNC(=O)C1CCN(C2=NS(=O)(=O)C(c3ccc(CC)cc3)=C2C)CC1
1030 s | O=C(Nc1cccc(C(F)(F)F)c1)NC1(c2nc(C3CC3)no2)CCCCC1
979 s | Cc1cc(-c2nnc(-c3ccc(F)cc3)o2)c(C)n1CC(=O)NC1CCCCC1
945 s | Cc1ccc2c(c1)N(S(C)(=O)=O)CCC(C(=O)NCc1ccccc1Cl)O2 (centres undefined)
925 s | Cc1csc(-c2ccc(N3CCN(C(=O)COc4ccc(Cl)cc4)CC3)nc2)n1
606 s | N#Cc1ccc(CN2CCC3(CC2)CN(C2CCC2)CC3CO)cc1 (centres undefined)
1030 s | CC(=O)c1cccc(NC(=O)Cn2cccc2-c2nc(-c3ccccc3)cs2)c1
614 s | COC(=O)C1=C(CN2CCN(C)CC2)NC(=O)NC1c1cc(C)ccc1C (centres undefined)
669 s | Cc1nnc2ccc(S(=O)(=O)Nc3ccc4c(c3)OCO4)cn12
753 s | O=C(Nc1ccc(C2(C(=O)NCC3CCCO3)CC2)cc1)c1cccs1 (centres undefined)
1090 s | CCOc1ccccc1-c1noc(Cn2c(=O)n(C(C)C)c(=O)c3ccccc32)n1
866 s | Cc1cc(S(=O)(=O)N2CCCC(Cn3cnc4cccnc43)C2)ccc1Cl (centres undefined)
591 s | COc1ccc(S(=O)(=O)N2CCCC(C(=O)NCc3ccncc3)C2)cc1OC (centres undefined)
1230 s | CCOc1nc2ccccc2nc1N1CCCC(C(=O)Nc2ccccc2C(C)C)C1 (centres undefined)
805 s | COc1ccc(NC(=O)CCc2cccc3[nH]ccc23)c(C)c1
1030 s | Cc1ccc(S(=O)(=O)Cc2noc(-c3ccc(Br)cc3)n2)cc1
